Source: patent US4818753A, “Synthesis and method of use for 2, 4 diaminoquinazoline” (SRI International, priority 1987, dated 1989)
Converted amounts (≈) assume the structure as drawn. Like-named read-outs stand apart in the source and are kept apart here.

Tests used:
Candida albicans (10231) = test: Broth dilution assay, F1; assay type: cell-based
Procedure: (§1) Both broth dilution and agar dilution assays were used to assess the antifungal activity of the compounds of the invention. The cultures were maintained in Sabouraud dextrose broth (SDB) and diluted with […]. 2.5 l of SDB was prepared and distributed into sterile vessels as follows: 49 ml into 1 vessel, 27 ml into 3 vessels, 45 ml into 2 vessels.
(§2) Five mg/ml concentration of each compound was prepared using DMSO as the solvent; warming and sonication were necessary to dissolve each compound completely. The compounds were then diluted in SDB according to the following protocol:
(§3) 5. 1 ug/ml--5 ml (3)+45 ml SDB
(§4) The compound at each concentration in SDB was then dispensed into 6 tubes each containing 4 ml […]. Controls (without any compound) were also prepared to insure that the solvent itself was not fungicidal or fungistatic.
(§5) Cultures were grown in SDB for 24 h at 30° C. C. albicans and C. neoformans were diluted 1:10 in SDB before inoculation. Inoculation volume for yeasts was 2 drops of diluted cells per tube. The fungal cultures were homogenized before inoculation. The same volume was added, but without dilution. All tubes were incubated at room temperature on a rotating wheel. After 16 h of incubation at room temperature, the fungistatic assay was set up on agar plates. […] Yeasts were inoculated onto SDA (the corresponding agar) plates and fungi onto mycosel agar plates. These plates were then incubated at room temperature.

Candida albicans (14053) = test: Broth dilution assay, F2; assay type: cell-based
Procedure: as §1, §2, §3, §4, §5

[1] = tested on: Cryptococcus neoformans (13690); test: Broth dilution assay, F3; assay type: cell-based
Procedure: as §1, §2, §3, §4, §5

[2] = tested on: Epidermophyton floccosum (15693); test: Broth dilution assay, F4; assay type: cell-based
Procedure: as §1, §2, §3, §4, §5

[3] = tested on: Trichophyton mentagrophytes (11481); test: Broth dilution assay, F6; assay type: cell-based
Procedure: as §1, §2, §3, §4, §5

[4] = tested on: Microsporum gypseum (14683); test: Broth dilution assay, F12; assay type: cell-based; conditions: Nannizzia gypsea
Procedure: as §1, §2, §3, §4, §5

[5] = tested on: Penicillium citrinum (9849); test: Broth dilution assay, F19; assay type: cell-based; conditions: for MIC: Table 1, F19, Sabouraud Dextrose Broth pH 5.5, read-out: Minimum Inhibitory Concentration (S, fungistatic)
Procedure: as §1, §2, §3, §4, §5

Candida species = conditions: with SMX, against Candida; Castaldo 1979; cited from earlier work
Candida = test: Growth of Candida cultures with compound and/or SMX (FIG. 1); assay type: cell-based; conditions: SMX alone (100 ug)
[6] = pH 5.5, read-out: Minimum Inhibitory Concentration (S, fungistatic)
[7] = pH 5.5, read-out: Minimum Lethal Concentration (C, fungicidal)
[8] = pH 5.5, read-out: S Fungistatic
[9] = Table 1, F4, Sabouraud Dextrose Broth pH 5.5, read-out: Minimum Inhibitory Concentration (S, fungistatic)
[10] = Table 2, F4, Sabouraud Dextrose Broth pH 5.5, read-out: C Fungicidal
[11] = Table 2, F4, Sabouraud Dextrose Broth pH 5.5, read-out: S Fungistatic
[12] = Table 1, F6, Sabouraud Dextrose Broth pH 5.5, read-out: Minimum Inhibitory Concentration (S, fungistatic)
[13] = Table 2, F6, Sabouraud Dextrose Broth pH 5.5, read-out: C Fungicidal
[14] = Table 2, F6, Sabouraud Dextrose Broth pH 5.5, read-out: S Fungistatic
[15] = Table 1, Sabouraud Dextrose Broth pH 5.5, read-out: Minimum Inhibitory Concentration (S, fungistatic)
[16] = Table 2, Sabouraud Dextrose Broth pH 5.5, read-out: C Fungicidal
[17] = Table 2, Sabouraud Dextrose Broth pH 5.5, read-out: S Fungistatic
[18] = Table 2, F1, Sabouraud Dextrose Broth pH 5.5, read-out: C Fungicidal
[19] = Table 2, F1, Sabouraud Dextrose Broth pH 5.5, read-out: S Fungistatic
[20] = Table 2, F3, Sabouraud Dextrose Broth pH 5.5, read-out: C Fungicidal
[21] = Table 2, F3, Sabouraud Dextrose Broth pH 5.5, read-out: S Fungistatic

Compound | MIC [2, 11] | MIC [3, 14] | MIC [4, 17] | MIC (Candida albicans (10231); [19]) | MIC [1, 21] | MFC [2, 10] | MFC [3, 13] | MFC [4, 16] | MFC (Candida albicans (10231); [18]) | MFC [1, 20] | other results
Clc1ccc(COC(Cn2ccnc2)c2ccc(Cl)cc2Cl)c(Cl)c1 (stereo not drawn) [Miconazole, reference compound] | ≤ 0.3 mg/L | ≤ 0.3 mg/L | 1 mg/L (≈ 2.4 µM) | – | – | ≤ 0.3 mg/L | 10 mg/L (≈ 24 µM) | 30 mg/L (≈ 72.1 µM) | – | – | MFC (Candida albicans (10231); pH 5.5, read-out: C Fungicidal): 100 mg/L (≈ 240 µM); MIC (Candida albicans (10231); [6]): 10 mg/L (≈ 24 µM); MFC (Candida albicans (10231); [7]): 30 mg/L (≈ 72.1 µM); MIC (Candida albicans (10231); [8]): 10 mg/L (≈ 24 µM); MIC (Candida albicans (14053); [6]): 30 mg/L (≈ 72.1 µM); MFC (Candida albicans (14053); [7]): 30 mg/L (≈ 72.1 µM); MFC ([1]; pH 5.5, read-out: C Fungicidal): 10 mg/L (≈ 24 µM); MIC [1, 6]: ≤ 0.1 mg/L; MFC [1, 7]: 10 mg/L (≈ 24 µM); MIC [1, 8]: ≤ 0.3 mg/L; MIC [2, 9]: ≤ 0.1 mg/L; MFC [2, 7]: 1 mg/L (≈ 2.4 µM); MIC [3, 12]: 1 mg/L (≈ 2.4 µM); MFC [3, 7]: 30 mg/L (≈ 72.1 µM); MIC [4, 15]: 3 mg/L (≈ 7.21 µM); MIC [5]: ≤ 0.1 mg/L; MFC [5, 7]: 30 mg/L (≈ 72.1 µM)
Nc1nc(N)c2c(ccc3c2ccn3CC2CC2)n1 [N-cyclopropylmethyl-5,6-pyrrolo-2,4-diaminoquinazoline] | – | – | – | – | – | – | – | – | – | – | synergistic activity in presence of sulfamethoxazole (SMX) (Candida species): synergistic activity
CCCCCCCc1ccc2nc(N)nc(N)c2c1C [R^1 = CH3 R^2 = --CH2 (CH2)5 CH3, 2,4-Diamino-5-methyl-6-n-heptylquinazoline] | 10 mg/L (≈ 36.7 µM) | 30 mg/L (≈ 110 µM) | 30 mg/L (≈ 110 µM) | 30 mg/L (≈ 110 µM) | 3 mg/L (≈ 11 µM) | 30 mg/L (≈ 110 µM) | 30 mg/L (≈ 110 µM) | 100 mg/L (≈ 367 µM) | > 100 mg/L | 10 mg/L (≈ 36.7 µM) | –
CCCCCCCCCCc1ccc2nc(N)nc(N)c2c1C [R^1 = CH3 R^2 = --CH2 (CH2)8 CH3, 2,4-Diamino-5-methyl-6-n-decylquinazoline] | – | > 100 mg/L | 100 mg/L (≈ 318 µM) | 30 mg/L (≈ 95.4 µM) | 3 mg/L (≈ 9.54 µM) | – | 30 mg/L (≈ 95.4 µM) | > 100 mg/L | > 100 mg/L | 30 mg/L (≈ 95.4 µM) | –
Cc1cc(NS(=O)(=O)c2ccc(N)cc2)no1 [SMX, sulfamethoxazole, reference compound] | – | – | – | – | – | – | – | – | – | – | cfu/ml over a 36-h period (Candida): approximately 10^8 cfu/ml

The next lines start with results.

MIC [2, 11] | MIC [3, 14] | MIC [4, 17] | MIC (Candida albicans (10231); [19]) | MIC [1, 21] | Compound | MFC [2, 10] | MFC [3, 13] | MFC [4, 16] | MFC (Candida albicans (10231); [18]) | MFC [1, 20] | other results
30 mg/L (≈ 108 µM) | 30 mg/L (≈ 108 µM) | 100 mg/L (≈ 359 µM) | 100 mg/L (≈ 359 µM) | 10 mg/L (≈ 35.9 µM) | Cc1c(CCc2ccccc2)ccc2nc(N)nc(N)c12 [R^1 = CH3 R^2 = --CH2 (CH2)C6 H5, 2,4-Diamino-5-methyl-6-phenethylquinazline] | 100 mg/L (≈ 359 µM) | 30 mg/L (≈ 108 µM) | > 100 mg/L | > 100 mg/L | 30 mg/L (≈ 108 µM) | –
30 mg/L (≈ 105 µM) | > 100 mg/L | 100 mg/L (≈ 349 µM) | 100 mg/L (≈ 349 µM) | 3 mg/L (≈ 10.5 µM) | CCCCCCCCCc1ccc2nc(N)nc(N)c2c1 [R^1 = H R^2 = CH2 (CH2)7 CH3] | ≤ 0.3 mg/L | > 100 mg/L | > 100 mg/L | > 100 mg/L | > 30 mg/L | –
≤ 0.3 mg/L | ≤ 0.3 mg/L | ≤ 0.3 mg/L | > 100 mg/L | > 100 mg/L | Cc1cccc(N(C)C(=S)Oc2ccc3ccccc3c2)c1 [Tolnaftate, reference compound] | ≤ 0.3 mg/L | > 100 mg/L | 30 mg/L (≈ 97.6 µM) | > 100 mg/L | > 100 mg/L | MIC (Candida albicans (10231); Table 1, F1, Sabouraud Dextrose Broth pH 5.5, read-out: Minimum Inhibitory Concentration (S, fungistatic)): > 100 mg/L; MFC (Candida albicans (10231); Table 1, F1, Sabouraud Dextrose Broth pH 5.5, read-out: Minimum Lethal Concentration (C, fungicidal)): > 100 mg/L; MIC (Candida albicans (14053); Table 1, F2, Sabouraud Dextrose Broth pH 5.5, read-out: Minimum Inhibitory Concentration (S, fungistatic)): > 100 mg/L; MFC (Candida albicans (14053); Table 1, F2, Sabouraud Dextrose Broth pH 5.5, read-out: Minimum Lethal Concentration (C, fungicidal)): > 100 mg/L; MIC ([1]; Table 1, F3, Sabouraud Dextrose Broth pH 5.5, read-out: Minimum Inhibitory Concentration (S, fungistatic)): > 100 mg/L; MFC ([1]; Table 1, F3, Sabouraud Dextrose Broth pH 5.5, read-out: Minimum Lethal Concentration (C, fungicidal)): > 100 mg/L; MIC [2, 9]: ≤ 0.1 mg/L; MFC ([2]; Table 1, F4, Sabouraud Dextrose Broth pH 5.5, read-out: Minimum Lethal Concentration (C, fungicidal)): 10 mg/L (≈ 32.5 µM); MIC [3, 12]: ≤ 0.1 mg/L; MFC ([3]; Table 1, F6, Sabouraud Dextrose Broth pH 5.5, read-out: Minimum Lethal Concentration (C, fungicidal)): 3 mg/L (≈ 9.76 µM); MIC [4, 15]: ≤ 0.1 mg/L; MFC ([4]; Table 1, Sabouraud Dextrose Broth pH 5.5, read-out: Minimum Lethal Concentration (C, fungicidal)): 10 mg/L (≈ 32.5 µM); MIC [5]: ≤ 0.3 mg/L; MFC ([5]; Table 1, F19, Sabouraud Dextrose Broth pH 5.5, read-out: Minimum Lethal Concentration (C, fungicidal)): 30 mg/L (≈ 97.6 µM)
